Experimental data published in patent US20100183530A1, “Cosmetic compositions comprising 4-carboxy-2-pyrrolidinone esters and triazine lipophilic UV-screening agents” (L'OREAL, priority 2008, published 2010).

Assay: Solubility of lipophilic triazine screening agents in oils (prior art solvents and solvents of the invention)
Format: physicochemical
Details: weight/weight, solution left at laboratory temperature for 1 month, no crystal or oily deposit
[1] = oil: Caprylic/capric acid triglycerides
[2] = oil: Compound (m) of the invention
[3] = oil: Isopropyl N-lauroylsarcosinate

| solubility of the screening agent in the oil [2] | solubility of the screening agent in the oil [3] | solubility of the screening agent in the oil (oil: Compound (v) of the invention) [%] | Compound | solubility of the screening agent in the oil (oil: C12-C15 alkyl benzoate) [%] | solubility of the screening agent in the oil [1] [%] | solubility of the screening agent in the oil (oil: 2-Phenylethyl benzoate) [%] | solubility of the screening agent in the oil (oil: Compound (I) of the invention) [% gel] | solubility of the screening agent in the oil (oil: Compound (ii) of the invention) [% gel] | solubility of the screening agent in the oil (oil: Compound (j) of the invention) [% gel] |
| --- | --- | --- | --- | --- | --- | --- | --- | --- | --- |
| 60% gel | 35% | – | 2,4-bis(isobutyl 4′-aminobenzalmalonate)-6-[(3-{1,3,3,3-tetramethyl-1-[(trimethylsilyl)oxy]disiloxanyl}propyl)amino]-1,3,5-triazine [Screening agent 2] | 8 | 6 | – | – | – | – |
| 60% gel | 40% gel | – | CC(C)(C)COC(=O)C(=Cc1ccc(Nc2nc(Nc3ccc(C=C(C(=O)OCC(C)(C)C)C(=O)OCC(C)(C)C)cc3)nc(Nc3ccc(C=C(C(=O)OCC(C)(C)C)C(=O)OCC(C)(C)C)cc3)n2)cc1)C(=O)OCC(C)(C)C [Screening agent 1, Dineopentyl 2-[4-({4,6-bis[(4-{3-(neopentyloxy)-2-[(neopentyloxy)carbonyl]-3-oxoprop-1-enyl}phenyl)amino]-1,3,5-triazin-2-yl}amino)benzylidene]malonate] | – | – | – | – | – | – |
| 60% gel | 40% gel | – | CC(C)(C)COC(=O)C(=Cc1ccc(Nc2nc(Nc3ccc(C=C(C(=O)OCC(C)(C)C)C(=O)OCC(C)(C)C)cc3)nc(Nc3ccc(C(=O)NC(C)(C)C)cc3)n2)cc1)C(=O)OCC(C)(C)C [Screening agent 4, Dineopentyl 2-[4-({4-({4-[(tert-butylamino)carbonyl]phenyl}amino)-6-[(4-{3-(neopentyloxy)-2-[(neopentyloxy)carbonyl]-3-oxoprop-1-enyl}phenyl)amino]-1,3,5-triazin-2-yl}amino)benzylidene]malonate] | – | – | – | – | – | – |
| 18% | 10% | 20 | CCCCC(CC)COc1ccc(-c2nc(-c3ccc(OC)cc3)nc(-c3ccc(OCC(CC)CCCC)cc3O)n2)c(O)c1 (centres unmarked) [Screening agent 10, 5-[(2-Ethylhexyl)oxy]-2-[4-{4-[(2-ethylhexyl)oxy]-2-hydroxyphenyl}-6-(4-methoxyphenyl)-1,3,5-triazin-2-yl]phenol] | – | – | – | – | – | – |

| Compound | solubility of the screening agent in the oil [2] | solubility of the screening agent in the oil [3] | solubility of the screening agent in the oil (oil: Compound (v) of the invention) [%] | solubility of the screening agent in the oil (oil: C12-C15 alkyl benzoate) [%] | solubility of the screening agent in the oil [1] [%] | solubility of the screening agent in the oil (oil: 2-Phenylethyl benzoate) [%] | solubility of the screening agent in the oil (oil: Compound (I) of the invention) [% gel] | solubility of the screening agent in the oil (oil: Compound (ii) of the invention) [% gel] | solubility of the screening agent in the oil (oil: Compound (j) of the invention) [% gel] |
| --- | --- | --- | --- | --- | --- | --- | --- | --- | --- |
| CCCCOC(=O)c1ccc(Nc2nc(Nc3ccc(C=C(C(=O)OCC(C)(C)C)C(=O)OCC(C)(C)C)cc3)nc(Nc3ccc(C=C(C(=O)OCC(C)(C)C)C(=O)OCC(C)(C)C)cc3)n2)cc1 [Screening agent 3, Dineopentyl 2-[4-({4-{[4-(butoxycarbonyl)phenyl]amino}-6-[(4-{3-(neopentyloxy)-2-[(neopentyloxy)carbonyl]-3-oxoprop-1-enyl}phenyl)amino]-1,3,5-triazin-2-yl}amino)benzylidene]malonate] | 60% gel | 40% gel | – | – | – | – | – | – | – |
| CC(C)(C)CC(C)(C)NC(=O)c1ccc(Nc2nc(NCCC[Si](C)(O[Si](C)(C)C)O[Si](C)(C)C)nc(Nc3ccc(C(=O)NC(C)(C)CC(C)(C)C)cc3)n2)cc1 [Screening agent 5, N-(1,1,3,3-tetramethylbutyl)-4-({4-[(4-{[(1,1,3,3-tetramethylbutyl)amino]carbonyl}phenyl)amino]-6-[(3-{1,3,3,3-tetramethyl-1-[(trimethylsilyl)oxy]disiloxanyl}propyl)amino]-1,3,5-triazin-2-yl}amino)benzamide] | 60% gel | 40% gel | – | – | – | – | – | – | – |
| CCCCOC(=O)c1ccc(Nc2nc(NCCC[Si](C)(O[Si](C)(C)C)O[Si](C)(C)C)nc(Nc3ccc(C(=O)OCCCC)cc3)n2)cc1 [Screening agent 8, Butyl 4-({4-{[4-(butoxycarbonyl)phenyl]amino}-6-[(3-{1,3,3,3-tetramethyl-1-[(trimethylsilyl)oxy]disiloxanyl}propyl)amino]-1,3,5-triazin-2-yl}amino)benzoate] | 60% gel | 40% gel | – | 28 | 31 | 27 | 60 | 60 | 60 |
